The supplement of paper PMC11061612

Tests used:
Experiment in all cases: Bliss excess, mean over the matrix (fraction); higher = more synergy
MSTO-211H (Mesothelioma) = test system: MSTO-211H (Mesothelioma)
How it was run: (§1)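 Cell lines in DMEM/F12 or RPMI with 10% FBS were plated in 1536-well plates, held 24 hours at 37°C, 5% CO2, then given two-drug dose matrices for 72 hours (DMSO typically 0.2%). Viability was read by CellTiter-Glo 2.0 luminescence and scaled as inhibition from 0 (vehicle wells) to 1 (blank wells). Combination Emax is the second-highest inhibition in the matrix; Bliss excess is observed combination effect minus expected EA + EB − EA·EB, EA and EB being single-agent effects.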

[1] = test system: WSU-DLCL2 (B-Cell Non-Hodgkin's Lymphoma)
How it was run: as §1

[2] = test system: SNU-61 (Colorectal Carcinoma)
How it was run: as §1

[3] = test system: HLE (Hepatocellular Carcinoma)
How it was run: as §1

[4] = test system: HCC1143 (Breast Carcinoma)
How it was run: as §1

[5] = test system: SW48 (Colorectal Carcinoma)
How it was run: as §1

[6] = test system: U-118-MG (Low Grade Glioma)
How it was run: as §1

[7] = test system: HCT-116 (Colorectal Carcinoma)
How it was run: as §1

[8] = test system: DOK (Oral Cavity Carcinoma)
How it was run: as §1

[9] = test system: HOP-92 (Non-Small Cell Lung Carcinoma)
How it was run: as §1

[10] = test system: SKN-3 (Head and Neck Carcinoma)
How it was run: as §1

[11] = test system: MES-SA (Other Solid Carcinomas)
How it was run: as §1

[12] = test system: 647-V (Bladder Carcinoma)
How it was run: as §1

H4 (Low Grade Glioma) = test system: H4 (Low Grade Glioma)
How it was run: as §1

MCF7 (Breast Carcinoma) = test system: MCF7 (Breast Carcinoma)
How it was run: as §1

HuO9 (Osteosarcoma) = test system: HuO9 (Osteosarcoma)
How it was run: as §1

[13] = test system: D-283MED (Other Solid Carcinomas)
How it was run: as §1

A172 (Glioblastoma) = test system: A172 (Glioblastoma)
How it was run: as §1

[14] = test system: CAL-39 (Other Solid Carcinomas)
How it was run: as §1

HCC38 (Breast Carcinoma) = test system: HCC38 (Breast Carcinoma)
How it was run: as §1

Row | Compound | Bliss excess (MSTO-211H (Mesothelioma)) | Bliss excess [1] | Bliss excess [2] | Bliss excess [3] | Bliss excess [4] | Bliss excess [5] | Bliss excess [6] | Bliss excess [7] | Bliss excess [8] | Bliss excess [9] | Bliss excess [10] | Bliss excess [11] | Bliss excess [12] | Bliss excess (H4 (Low Grade Glioma)) | Bliss excess (MCF7 (Breast Carcinoma)) | Bliss excess (HuO9 (Osteosarcoma)) | Bliss excess [13] | Bliss excess (A172 (Glioblastoma)) | Bliss excess [14] | Bliss excess (HCC38 (Breast Carcinoma))
1 | CC1(C)CCC(CN2CCN(c3ccc(C(=O)NS(=O)(=O)c4ccc(NCC5CCOCC5)c([N+](=O)[O-])c4)c(Oc4cnc5[nH]ccc5c4)c3)CC2)=C(c2ccc(Cl)cc2)C1 [Venetoclax] + Cc1cc2ncnn2cc1Nc1ncc2c(n1)n(C1CCOCC1)c(=O)n2C [AZD7648] (first compound max 1 µM, 7x7, partner max 10 µM) | -0.0564 | 0.0706 | 0.0023 | -0.024 | 0.0481 | 0.0327 | -0.0148 | 0.0048 | -0.0208 | -0.0194 | -0.0193 | -0.0384 | 0.0316 | -0.0541 | -0.0267 | 0.0557 | -0.051 | -0.0385 | -0.104 | -0.007
2 | COc1cccc(OCCCN)c1-c1cc(Nc2cnc(C#N)cn2)n[nH]1 [Prexasertib] + C=CCn1c(=O)c2cnc(Nc3ccc(N4CCN(C)CC4)cc3)nc2n1-c1cccc(C(C)(C)O)n1 [AZD1775] (first compound max 1 µM, partner max 1 µM) | 0.0083 | 0.138 | -0.0124 | 0.0125 | 0.0271 | 0.1 | 0.0225 | 0.083 | 0.108 | -0.0601 | 0.119 | 0.078 | 0.233 | 0.0726 | 0.0197 | 0.109 | 0.079 | 0.142 | 0.0679 | 0.0246
3 | COc1cccc(OCCCN)c1-c1cc(Nc2cnc(C#N)cn2)n[nH]1 [Prexasertib] + Cc1cc2ncnn2cc1Nc1ncc2c(n1)n(C1CCOCC1)c(=O)n2C [AZD7648] (first compound max 1 µM, 7x7, partner max 10 µM) | -0.0059 | 0.0071 | -0.0123 | -0.064 | -0.0318 | -0.0344 | -0.0584 | -0.0164 | 0.0019 | 0.0218 | -0.0564 | -0.02 | -0.0011 | -0.0369 | 0.0688 | -0.105 | -0.0193 | -0.0573 | -0.0122 | -0.0592
4 | Cc1c2c(nn1C)CSCc1cc(n(C)n1)CSc1cc(c3ccccc3c1)OCCCc1c(C(=O)O)n(C)c3c-2c(Cl)ccc13 [AZD5991] + CC1(C)CCC(CN2CCN(c3ccc(C(=O)NS(=O)(=O)c4ccc(NCC5CCOCC5)c([N+](=O)[O-])c4)c(Oc4cnc5[nH]ccc5c4)c3)CC2)=C(c2ccc(Cl)cc2)C1 [Venetoclax] (first compound max 1 µM, 7x7, partner max 1 µM) | -0.0455 | 0.173 | -0.0143 | -0.0061 | 0.0051 | 0.0059 | -0.0328 | -0.0317 | 0.0712 | 0.0247 | -0.03 | -0.0068 | -0.0271 | 0.0384 | 0.0623 | 0.0182 | 0.0701 | -0.0222 | -0.0298 | -0.0307
5 | COc1cccc(OCCCN)c1-c1cc(Nc2cnc(C#N)cn2)n[nH]1 [Prexasertib] + C[C@@H]1COCCN1C2=NC(=NC(=C2)C3(CC3)[S@](=N)(=O)C)C4=C5C=CNC5=NC=C4 [AZD6738] (first compound max 1 µM, 7x7, partner max 10 µM) | -0.0197 | 0.0096 | -0.0693 | 0 | -0.026 | 0.0015 | -0.0136 | 0.103 | 0.0689 | -0.0039 | -0.0347 | -0.0765 | -0.0106 | 0.0311 | 0.017 | -0.0638 | 0.0042 | 0.0013 | 0.0251 | -0.0029
6 | COc1cccc(OCCCN)c1-c1cc(Nc2cnc(C#N)cn2)n[nH]1 [Prexasertib] + CN(C)CCCOc1ccc(-c2ccc3ncc4c(c3c2)n(C2CCOCC2)c(=O)n4C)cn1 [AZD0156] (first compound max 1 µM, 7x7, partner max 1 µM) | -0.0164 | 0.0086 | -0.0459 | -0.0646 | -0.0453 | -0.0227 | 0.041 | -0.0194 | -0.0225 | 0.0056 | 0.011 | 0.0641 | -0.0525 | -0.0309 | 0.149 | -0.0958 | 0.0116 | 0.0542 | 0.0099 | -0.0482
7 | Cc1c2c(nn1C)CSCc1cc(n(C)n1)CSc1cc(c3ccccc3c1)OCCCc1c(C(=O)O)n(C)c3c-2c(Cl)ccc13 [AZD5991] + C[C@@H](Nc1cc(F)cc(F)c1)c1cc(C(=O)N(C)C)cc2c(=O)cc(N3CCOCC3)oc12 [AZD8186] (first compound max 1 µM, 7x7, partner max 3 µM) | -0.0019 | -0.058 | -0.0277 | 0.0254 | 0.0441 | -0.0271 | 0.0012 | -0.0421 | 0.003 | 0.0222 | -0.0606 | -0.0381 | 0.0458 | -0.0054 | -0.01 | 0.0127 | -0.0186 | -0.004 | 0.0117 | 0.011
8 | CCN(CCO)CCCOc1ccc2c(Nc3cc(CC(=O)Nc4cccc(F)c4)[nH]n3)ncnc2c1 [AZD2811] + C[C@@H]1COCCN1C2=NC(=NC(=C2)C3(CC3)[S@](=N)(=O)C)C4=C5C=CNC5=NC=C4 [AZD6738] (first compound max 1 µM, 7x7, partner max 10 µM) | -0.0279 | -0.0431 | -0.0434 | 0.0179 | -0.0291 | -0.0228 | -0.0337 | -0.0825 | -0.0502 | 0.0305 | -0.0167 | -0.0328 | 0.0177 | -0.0536 | -0.0565 | -0.0491 | -0.0541 | -0.0252 | 0.0015 | -0.0372
9 | CN(CCO)CC[C@H](CSc1ccccc1)Nc1ccc(S(=O)(=O)NC(=O)c2ccc(N3CCC([C@@H](O)c4ccccc4-c4ccc(Cl)cc4)CC3)cc2)cc1S(=O)(=O)C(F)(F)F [AZD4320] + C[C@@H](Nc1cc(F)cc(F)c1)c1cc(C(=O)N(C)C)cc2c(=O)cc(N3CCOCC3)oc12 [AZD8186] (first compound max 1 µM, 7x7, partner max 3 µM) | 0.0841 | 0.0852 | 0.016 | -0.0428 | 0.0263 | -0.0048 | 0.0018 | 0.0266 | -0.0195 | 0.0329 | 0.0112 | 0.0139 | 0.0441 | 0.0521 | 0.0057 | 0.0515 | 0.0429 | 0.0387 | 0.0175 | -0.0028
10 | CC1(C)CCC(CN2CCN(c3ccc(C(=O)NS(=O)(=O)c4ccc(NCC5CCOCC5)c([N+](=O)[O-])c4)c(Oc4cnc5[nH]ccc5c4)c3)CC2)=C(c2ccc(Cl)cc2)C1 [Venetoclax] + CCN(CCO)CCCOc1ccc2c(Nc3cc(CC(=O)Nc4cccc(F)c4)[nH]n3)ncnc2c1 [AZD2811] (first compound max 1 µM, 7x7, partner max 1 µM) | -0.0066 | 0.301 | -0.0084 | 0.005 | 0.0005 | -0.0071 | -0.0032 | 0.008 | -0.0249 | 0.0135 | -0.0167 | 0.0315 | 0.0533 | 0.0007 | 0.0142 | 0.0203 | 0.0579 | -0.0296 | -0.0113 | 0.0347
11 | CCc1c2c(nc3ccc(O)cc13)-c1cc3c(c(=O)n1C2)COC(=O)[C@]3(O)CC [SN-38] + CN(C)CCCOc1ccc(-c2ccc3ncc4c(c3c2)n(C2CCOCC2)c(=O)n4C)cn1 [AZD0156] (first compound max 0.3 µM, 7x7, partner max 1 µM) | 0.0527 | 0.0312 | -0.0134 | -0.0434 | 0.0405 | 0.098 | -0.0108 | 0.0669 | 0.0323 | 0.027 | -0.0209 | -0.0316 | 0.0291 | -0.0255 | -0.0388 | 0.0365 | -0.024 | 0.0443 | -0.0039 | -0.0453
12 | C=CCn1c(=O)c2cnc(Nc3ccc(N4CCN(C)CC4)cc3)nc2n1-c1cccc(C(C)(C)O)n1 [AZD1775] + C[C@@H]1COCCN1C2=NC(=NC(=C2)C3(CC3)[S@](=N)(=O)C)C4=C5C=CNC5=NC=C4 [AZD6738] (first compound max 1 µM, partner max 10 µM) | 0.0418 | 0.0763 | -0.051 | -0.0148 | 0.0108 | 0.0642 | -0.0075 | 0.0252 | 0.0081 | -0.0231 | 0.0234 | 0.01 | 0.0662 | -0.0949 | 0.0332 | 0.0672 | 0.0327 | 0.0433 | 0.0822 | -0.0805
13 | NC1(C(=O)N[C@@H](CCO)c2ccc(Cl)cc2)CCN(c2ncnc3[nH]ccc23)CC1 [Capivasertib] + C[C@@H]1COCCN1C2=NC(=NC(=C2)C3(CC3)[S@](=N)(=O)C)C4=C5C=CNC5=NC=C4 [AZD6738] (first compound max 10 µM, 7x7, partner max 10 µM) | -0.0088 | -0.0088 | -0.0316 | -0.038 | -0.105 | -0.0387 | -0.0276 | -0.0432 | -0.0681 | -0.0518 | -0.0564 | -0.0719 | -0.0386 | -0.0667 | -0.0707 | -0.0535 | -0.0048 | -0.0106 | 0.0019 | -0.0366
14 | COc1nnc2ccc(N3CCC(c4ccc(OCCN5CCN(C)C(=O)[C@H]5C)cc4)CC3)nn12 [AZD5153] + C[C@@H]1COCCN1C2=NC(=NC(=C2)C3(CC3)[S@](=N)(=O)C)C4=C5C=CNC5=NC=C4 [AZD6738] (first compound max 1 µM, 7x7, partner max 10 µM) | -0.0354 | -0.0467 | 0.0459 | 0.0608 | -0.0036 | -0.109 | 0.0267 | -0.0049 | 0.008 | 0.0246 | 0.0128 | 0.0781 | 0.029 | -0.0081 | -0.0228 | 0.031 | -0.0087 | -0.0059 | -0.011 | -0.0182
